The text below walks through data of patent publication US11844803B2, “Renal dysfunction improving drug comprising optical isomer of 1,4-benzothiazepine-1-oxide derivative” (AETAS PHARMA CO., LTD., priority 2017, dated 2023).

Data set [1] deals with ischemia/reperfusion injury in kidneys. The data set is described as follows: Rat kidney ischemia/reperfusion injury model (renal arteries clamped 45 minutes, then reperfusion). The data set is classed as in vivo, SD rats. To be noted: 48 hours after administration; hydrochloride, 6 mg/kg in total; n=6; placebo 6.07±0.36; before administration 0.27±0.01. The protocol:
Method: Eleven 8-week-old male SD rats were used and laparotomized under anesthesia, the renal artery of the left kidney, and then after 1 minute, that of the right kidney were clamped using a non-traumatic clip for 45 minutes, and then reperfusion was performed.
The hydrochloride of the first optical isomer component (compound (A)) of the formula [IV] of the present invention was dissolved in physiological saline, and 4 mg/kg (before ischemia) and 2 mg/kg (before and after reperfusion) of the compound (A) (6 mg/kg in total) were administered for 10 minutes before ischemia and before and after reperfusion, respectively. On the other hand, the placebo group was subjected to the same procedure as in the compound (A)—administration group in every way except that only physiological saline was administered instead of physiological saline solution of the hydrochloride of the compound (A). […]
For calculation of a creatinine clearance value, the total urine of during 60 minutes before administration and during 0 to 8, 8 to 24, and 24 to 48 hours after administration were collected in each rat, and the urine volume and the value of creatinine in urine were measured. Further, a blood sample was obtained before administration and after 4, 8, 24, and 48 hours of administration and serum creatinine values were measured over time. […]

In another data set the test system is dog renal function. The data set is described as follows: Action on dog renal function, anesthetized beagle, ureter cannulation, cumulative i.v. doses. The data set is classed as in vivo. The protocol:
Method: 5 mg/kg of ketamine hydrochloride (KETALAR FOR INTRAMUSCULAR INJECTION 500 mg, 50 mg/mL, DAIICHI SANKYO COMPANY, LIMITED) was intramuscularly administered to a 10 to 12 kg beagle dog (n=4) as a preanesthetic administration, and then anesthesia was performed by inhale of isoflurane. After intratracheal intubation, isoflurane was inhaled in a range of 1 to 5%, artificial ventilation was carried out, and a tracheal tube was intubated and mounted on a ventilator. The examinations were performed under the ventilation conditions of 10 to 25 mL/kg/stroke and 10 to 20 stroke/min. The lower abdomen was incised, the dog was cannulated in the ureters at the both sides, and urine was continually collected. After the urination became constant, the compound (A) as the first optical isomer component which had been obtained in Example 2 was dissolved in physiological saline, and cumulative doses of 0.1 mg/kg, 0.3 mg/kg, 1 mg/kg, and 3 mg/kg of Compound (A) were administered through the leg veins for 20 minutes each.
A blood sample was obtained before the start of administration of the compound [IV] and every 20 minutes after completion of administration beginning at a time immediately after completion of administration (0 minutes), and changes in urine volume from the ureters at the both sides, Na in urine, K in urine, and a serum creatinine value were examined every 20 minutes.

The nature of data set [2]: Stability and solubility properties of the substance. Type of data set: physicochemical.
A further data set has as its system human renal function. The data set is described as follows: Action on human renal function: 8-hour urine volume after i.v. administration, double-blinded. The data set is classed as in vivo, adult human (male). Conditions: for total urine volume from 0 to 8 hours after administration: hydrochloride, 6 persons, placebo 459.8 (±184.1). The protocol:
After an adult was caused to completely urinate before administration of the compound (A), the compound (A) was administered to the adult. The study was performed in a double-blinded manner.
(§1) Method: Three groups including a group with 0 mg/kg of the compound (A) being administered (placebo group: 8 persons), a group with 0.05 mg/kg of the compound (A) being administered (6 persons), and a group with 0.15 mg/kg of the compound (A) being administered (6 persons) were made. The hydrochloride of the compound (A) was dissolved in physiological saline and intravenously administered at a rate of 2.5 mL/min for 20 minutes. The urine volume from a time immediately after administration to a time after 8 hours of administration and the maximum plasma concentration immediately after administration were measured.

Data set [3] in a line: Maximum plasma concentration immediately after i.v. administration in adult human. Type of data set: in vivo, adult human (male). To be noted: 0.15 mg/kg i.v. for 20 minutes, hydrochloride, 6 persons. The protocol:
as §1

Data set [4] deals with dog with complete atrioventricular block. The data set is described as follows: Torsades de Pointes in dog with complete atrioventricular block. Type of data set: in vivo. Conditions: dose not given.
The test system is the same in data set [5]. Conditions: 1.2 mg/kg body weight; Non-Patent Document 3; cited from earlier work.

Like-named read-outs stand apart in the source and are kept apart here.

Take `COc1ccc2c(c1)CN(C(=O)CCN1CCC(Cc3ccccc3)CC1)CC[S+]2[O-]` (single isomer, unassigned) [compound (A), 4-[3-(4-benzylpiperidin-1-yl)propionyl]-7-methoxy-2,3,4,5-tetrahydro-1,4-benzothiazepine-1-oxide]: in data set [1], the serum creatinine value was 3.02 ± 0.82 mg/dL. For the same molecule, the “excretion amount of sodium (amount of urinary sodium) vs control” value in the data set on dog renal function (after 1 mg/kg and 3 mg/kg i.v. (cumulative doses), n=4, FIG. 5) was “significant increase”. Also, in the data set with dog renal function (after 1 mg/kg and 3 mg/kg i.v. (cumulative doses), n=4, FIG. 6), the “excretion amount of potassium (amount of urinary potassium) vs control” value is “significant increase”. Further, the “serum creatinine value vs control” value with dog renal function (after 1 mg/kg and 3 mg/kg i.v. (cumulative doses), n=4, FIG. 7) is given as “significant decrease”. Moreover, the “urine volume vs control” value with dog renal function (after 1 mg/kg and 3 mg/kg i.v. (cumulative doses, 20 minutes each), n=4, paired t, FIG. 4) is given as “significant increase”. Further, the solubility entry in data set [2] is listed as “water-soluble”. Also, the entries for the “total urine volume from 0 to 8 hours after administration” value with human renal function (0.05 mg/kg i.v. for 20 minutes) and with human renal function (0.15 mg/kg i.v. for 20 minutes) were 545.2 (±362.1) mL and 914.2 (±431.0) mL, respectively. Moreover, the “increase in urine volume as compared to the placebo group (significance)” value with human renal function (0.05 mg/kg i.v., 0 to 8 hours) was “significant (p<0.05) increase in urine volume was not recognized”; in the data set with human renal function (0.15 mg/kg i.v., 0 to 8 hours) it was “significant (p<0.05) increase”. The “urine volume relative to that of the placebo group” value in the data set on human renal function (0.15 mg/kg i.v., 0 to 8 hours) is “approximately two times”. Moreover, the “blood concentration immediately after administration” value in data set [3] was found to be 349.3 ± 93.7 ng/mL. For the same molecule, the “occurrence of Torsades de Pointes” value in data set [4] is “does not cause Torsades de Pointes”.

Take `COc1ccc2c(c1)CN(C(=O)CCN1CCC(Cc3ccccc3)CC1)CCS2` [JTV519, 4-[3-(4-benzylpiperidin-1-yl)propionyl]-7-methoxy-2,3,4,5-tetrahydro-1,4-benzothiazepine]: the “occurrence of Torsades de Pointes” value in data set [5] is “Torsades de Pointes that is life-threatening arrhythmia occurs”.

For the molecule `COc1ccc2c(c1)CN(C(=O)CCN1CCC(Cc3ccccc3)CC1)CC[S+]2[O-]` (stereo not drawn) [compound having the above formula [Ia]] [4-[3-(4-benzylpiperidin-1-yl)propionyl]-7-methoxy-2,3,4,5-tetrahydro-1,4-benzothiazepine-1-oxide], the skin irritating property result in the data set “Skin irritating property” is “has a skin irritating property”. In addition, the solubility entry in data set [2] is “easily dissolved in ethanol and dimethyl sulfoxide (DMSO)”. Moreover, the stability entry in data set [2] (room temperature) was “stable to oxygen, humidity, acid, and alkali”.

For the molecule `COc1ccc2c(c1)CN(C(=O)CCN1CCC(Cc3ccccc3)CC1)CC[S+]2[O-]` (stereo not drawn) [oxalate of the compound [Ia]] [4-[3-(4-benzylpiperidin-1-yl)propionyl]-7-methoxy-2,3,4,5-tetrahydro-1,4-benzothiazepine-1-oxide], in data set [2], the solubility entry is “soluble in water, ethanol, and dimethyl sulfoxide”.
